{"source": "patent US8119657B2", "about": "“Enantiomeric compositions of 2-amino-1-(2-isopropylpyrazolo[1,5-α]pyridin-3-yl)propan-1-one and related methods” (MediciNova, Inc., priority 2009, dated 2012)", "key": {"Water solubility": {"assay": "Water solubility", "type": "physicochemical"}, "[1]": {"assay": "Dog pharmacokinetics of the enantiomers after oral dosing of racemic AV1013", "type": "in vivo", "details": "for Cmax: po", "experimental": "Three male beagle dogs were dosed orally with 10 mg/kg racemic AV1013 via gavage. AV1013 was dissolved in water at 5 mg/ml and dosed via gavage at a volume of 2 ml/kg. Blood samples were collected via the jugular vein at 5, 15 and 30 minutes, 1, 2, 4, 6, 8, and 24 hours post dosing.\n(§1) A sensitive and specific chiral HPLC/MS/MS bioanalytical method for the detection of (S)-AV1013 and (R)-AV1013 enantiomers in rat and dog plasma was utilized. AV1013 enantiomers and the internal standard (AV1040, an analog of AV1013) were isolated from plasma by protein precipitation induced by acetonitrile. After centrifugation to sediment the proteins, the supernatant fractions were analyzed by high performance liquid chromatography (LC) in conjunction with a triple quadrupole mass spectrometer that used electrospray ionization in tandem with positive ionization (MS/MS) according to the conditions below. The LLOQ (lower level of quantitation) was typically <3 ng/mL.\n(§2) Analysis of pharmacokinetic parameters was performed for each enantiomer via LC/MS bioanalytics and WinNonlin™ analysis (version 4.0.1; Pharsight Corp., Mountain View, Calif.), commercial software designed for the analysis of PK data. The PK modeling was based on a non-compartmental model with gradual input into the central compartment. Computation of the area under the curve (AUC) was based on the sum of trapezoidal areas for the plotted plasma concentration-time data. AUC and associated parameters were estimated by log-linear regression analysis of the terminal phase."}, "formalin paw model": {"tested_on": "formalin paw model", "assay": "Inflammatory pain model (formalin paw model) in mice", "type": "in vivo", "details": "for % Change from Control / Licking Score (Mean +/− SEM): mice", "experimental": "The model employed is described in detail by Wheeler-Aceto et al (Psychopharmacology, 104, p 35-44, (1991)). Briefly, mice were given an intraplantar injection of 5% formalin (25 μl) into the posterior left paw. […] Mice were briefly observed at 1 minute intervals between 15 and 50 minutes after the injection of formalin and the number of times mice were observed licking the injected paw was recorded. 10 mice were studied in each group. The test was performed blind.\nAV1013-S was evaluated at 3 doses (10, 25 and 50 mg/kg), administered p.o. 60 minutes before the test (i.e. 45 minutes before formalin), and compared with a vehicle control group. Gabapentin (300 mg/kg p.o.), administered under the same experimental conditions, was used as reference substance. The experiment therefore included 5 groups.\nData were analyzed by comparing treated groups with vehicle control using unpaired Mann-Whitney U tests."}, "Rolipram binding site": {"tested_on": "Rolipram binding site", "assay": "Inhibition of binding at the Rolipram binding site", "details": "10 uM"}, "[2]": {"assay": "In vivo interconversion of enantiomers in rats dosed with enantiomerically pure (S)-AV1013", "set-up": "species or system rat", "details": "rats dosed with (S)-AV1013 of 99% enantiomeric excess, LLOQ=5 ng/mL"}, "[3]": {"assay": "Bioavailability and duration of action of (S)-AV1013"}, "[4]": {"target": "T1, rhMIF (recombinant human Macrophage migration Inhibitory Factor) (Homo sapiens, UniProt P14174)", "T1 sequence (P14174 2-115 limits assumed)": "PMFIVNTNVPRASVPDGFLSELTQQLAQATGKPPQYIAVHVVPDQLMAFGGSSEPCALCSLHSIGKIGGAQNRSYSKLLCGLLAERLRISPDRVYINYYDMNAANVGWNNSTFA", "assay": "MIF-induced migration of human peripheral blood monocytes (PBMCs)", "type": "cell-based", "details": "rhMIF 90 nM, dilution series of inhibitor", "experimental": "The chemo attractant activities of rhMIF (recombinant human Macrophage migration Inhibitory Factor) and the effect of inhibitors were measured using human peripheral blood monocytes (PBMCs) isolated from whole blood by centrifugation on Histopaque-1077 (Sigma). The cells were washed in RPMI-1640, diluted to 1×10^6 cells/ml and analyzed immediately. These assays were carried out in 24 well tissue culture plates utilizing 8.0 μm cell culture inserts (Falcon). Recombinant hMIF (90 nM), diluted in RPMI was placed in the cells of a 24 well plate with or without inhibitor (10-fold molar excess or dilution series) and allowed to incubate for 30 min at 37° C., 5% CO2. Washed human monocytes were added to the upper chamber of 8.0 μm cell culture inserts and allowed to incubate for 3 hrs at 37° C., 5% CO2. Cells that migrate through the membrane were fixed in methanol and stained with Geimsa, prior to cell counting using light microscopy.\nResults are expressed as the mean number of cells counted per high power field for each of two replicates to obtain statistically significant data. (Legend: −Star=no human MIF, Skull=no human MIF+10 uM (S)-AV1013. See FIGS. 5A and 5B."}, "[5]": {"assay": "Rat pharmacokinetics of the enantiomers after oral dosing of racemic AV1013", "type": "in vivo", "details": "for Cmax: po", "experimental": "Three male Sprague-Dawley rats were dosed orally via gavage with 25 mg/kg racemic AV1013 dissolved in water. Serial blood samples were collected from the tail vein at 5, 15, and 30 min, 1, 3, and 6 hours post dosing. Samples were processed for plasma via centrifugation and plasma samples were stored frozen prior to analysis.\nas §1, §2"}, "[6]": {"tested_on": "rat chronic constriction injury model of neuropathic pain", "assay": "Rat chronic constriction injury model of neuropathic pain (von Frey mechanical allodynia)", "type": "in vivo", "details": "rat CCI, oral 25 mg/kg, 2 hours post-dosing, 25 mg/kg", "description": "The (S)- and the (R)-enantiomer of AV1013 were each evaluated in a rat chronic constriction injury model of neuropathic pain (see, Ledeboer et. al., Neuron Glia Biology, (2006), p 279-291), to determine whether differences in their activity could be observed.\nTo induce allodynia, male Sprague-Dawley rats underwent chronic constriction injury (CCI) to the sciatic nerve as described by Bennett and Xie, Pain 1988; 33(1):87-107. The plantar surface of the hind paws was stimulated with von Frey filaments (Stoelting) to induce a withdrawal response by blinded personnel. The bending force of fiber required to induce a 50% withdrawal response was calculated following CCI surgery (pre-dosing baseline).\nAllodynic rats (N=5-6), received an oral administration of (S)-AV1013 (25 mg/kg), AV1013-R (100 mg/kg) or vehicle. Two hours post-dosing, 50% paw withdrawal threshold was determined by blinded testers using von Frey filaments. The 50% withdrawal threshold prior to CCI surgery, pre-dosing (10 days post-surgery), and 2 hours post-dosing are plotted in FIG. 3."}, "[7]": {"details": "10 mg/kg p.o. 60 min before the test"}, "[8]": {"details": "25 mg/kg p.o. 60 min before the test"}}, "note": "“Also recorded” adds a separate entry of the source. Marks after values point to notes of the source that are not given here.", "data": [{"smiles": "CC(C)c1nn2ccccc2c1C(=O)[C@H](C)N", "note": "[(S)-AV1013, (S)-2-amino-1-(2-isopropylpyrazolo[1,5-a]pyridin-3-yl)propan-1-one]", "values": [{"measurement": "water solubility", "setting": "Water solubility", "value": "good water solubility"}, {"measurement": "AUC of (S) relative to (R) enantiomer", "setting": "[1]; dog, oral dosing of racemate", "value": "> 3", "unit": "fold"}, {"measurement": "Cmax of (S) relative to (R) enantiomer", "setting": "[1]; dog, oral dosing of racemate", "value": "at least 2 fold"}, {"measurement": "Cmax of (S) relative to (R) enantiomer", "setting": "[1]; dog, oral dosing of racemate, listed as (S)-enantiomer", "value": "> 2", "unit": "fold"}, {"measurement": "Cmax", "setting": "[1]; male, beagle, dog, plasma, 10 mg/kg, beagle dog, oral 10 mg/kg racemic AV1013, plasma, read-out: Cmax", "value": 2630, "unit": "ng/mL"}, {"measurement": "Cmax", "setting": "[1]; male, beagle, dog, plasma, 10 mg/kg, dog, oral dosing of racemate, rounded values, read-out: mean peak plasma levels (Cmax)", "value": 2600, "unit": "ng/mL"}, {"measurement": "AUC", "setting": "[1]; male, beagle, plasma, 10 mg/kg, dog, oral dosing of racemate, rounded values, read-out: calculated area under the curves (AUC)", "value": 24200, "unit": "ng·h/mL"}, {"measurement": "AUC(0-t)", "setting": "[1]; male, beagle dog, oral 10 mg/kg racemic AV1013, plasma", "value": 24200, "unit": "ng·h/mL"}, {"measurement": "% Change from Control", "setting": "formalin paw model; [7]", "value": "−16", "unit": "%"}, {"measurement": "Licking Score (Mean +/− SEM)", "setting": "formalin paw model; [7]", "value": "13.1 +/− 1.5"}, {"measurement": "% Change from Control", "setting": "formalin paw model; [8]", "value": "−16", "unit": "%"}, {"measurement": "Licking Score (Mean +/− SEM)", "setting": "formalin paw model; [8]", "value": "13.1 +/− 1.8"}, {"measurement": "% Change from Control", "setting": "formalin paw model; 50 mg/kg p.o. 60 min before the test, 50 mg/kg", "value": "−45", "unit": "%"}, {"measurement": "Licking Score (Mean +/− SEM)", "setting": "formalin paw model; 50 mg/kg p.o. 60 min before the test, p < 0.01", "value": "8.6 +/− 1.4 *"}, {"measurement": "analgesic/anti-inflammatory activity in mouse formalin paw model (late-phase)", "setting": "formalin paw model; single oral dose of 50 mg/kg", "value": "demonstrated analgesic/anti-inflammatory activity"}, {"measurement": "inhibition of the Rolipram binding site", "setting": "Rolipram binding site", "value": 12, "unit": "%"}, {"measurement": "plasma levels of the (R) enantiomer after dosing (S) (in vivo racemization)", "setting": "[2]", "value": "no detectable plasma levels of the corresponding (R) enantiomer"}, {"measurement": "plasma levels of the (R) enantiomer after dosing (S) (in vivo racemization)", "setting": "[2]; listed as (S)-enantiomer", "value": "does not result in detectable levels of the (R)-enantiomer"}, {"measurement": "in vivo duration of action", "setting": "[3]", "value": "2 to 24", "unit": "h"}, {"measurement": "bioavailability", "setting": "[3]; in vivo, share of the (S)-enantiomer dosed that is bioavailable", "value": "> 70", "unit": "%"}, {"measurement": "antagonism of MIF-induced cell migration", "setting": "[4]", "value": "antagonize MIF-induced macrophage migration in a dose-dependent fashion; also recorded: antagonize MIF-induced mononuclear cell migration in a similar dose dependent fashion"}, {"measurement": "AUC(0-t)", "setting": "[5]; male, Sprague-Dawley, oral 25 mg/kg racemic AV1013, plasma", "value": 5950, "unit": "ng·h/mL"}, {"measurement": "AUC", "setting": "[5]; male, Sprague-Dawley, plasma, 25 mg/kg, oral dosing of racemate, rounded values, read-out: calculated area under the curves (AUC)", "value": 6000, "unit": "ng·h/mL"}, {"measurement": "Cmax", "setting": "[5]; male, Sprague-Dawley, plasma, 25 mg/kg, oral 25 mg/kg racemic AV1013, plasma, read-out: Cmax", "value": 1260, "unit": "ng/mL"}, {"measurement": "Cmax", "setting": "[5]; male, Sprague-Dawley, plasma, 25 mg/kg, oral dosing of racemate, rounded values, read-out: mean peak plasma levels (Cmax)", "value": 1300, "unit": "ng/mL"}, {"measurement": "AUC of (S) relative to (R) enantiomer", "setting": "[5]; oral dosing of racemate", "value": "around 17 fold"}, {"measurement": "Cmax of (S) relative to (R) enantiomer", "setting": "[5]; oral dosing of racemate", "value": "at least 3 fold"}, {"measurement": "attenuation of mechanical allodynia (50% paw withdrawal threshold)", "setting": "[6]", "value": "substantially more potent in treating neuropathic pain than the corresponding (R) enantiomer"}, {"measurement": "attenuation of mechanical allodynia (50% paw withdrawal threshold)", "setting": "[6]; listed as (S)-enantiomer", "value": "more potent in vivo than is the (R)-enantiomer"}]}]}
